According to patent EP0386603A2, “Bisphenethanolamine” (F. HOFFMANN-LA ROCHE AG, priority 1989, dated 1990):

Assay: Effect on oxygen consumption in fasted rats (metabolic cages)
Assay type: in vivo, Albinoratten
Details: placebo-corrected; for Sauerstoffverbrauch 1. bis 3. Stunde: mean of hours 1-3 after dosing; for Sauerstoffverbrauch 1. bis 12. Stunde: mean of hours 1-12 after dosing
Method: Wirkung auf den Sauerstoffverbrauch
Gruppen von 6 männlichen Albinoratten im Gewicht von 160-180 g wurden nach 24 Stunden Fasten in Stoffwechselkäfige gesetzt. Die Käfige wurden mit konstant 6 Liter Raumluft/Minute, die bei einem Taupunkt von 11°C äquilibriert wurden belüftet. Von der Abluft wurde nach erneuter Aequilibrierung während Perioden von jeweils 14 Minuten Proben gesammelt und der Sauerstoff- und CO₂-Gehalt analysiert. Nach einer Anpassungszeit von 4 Stunden erhielten die Tiere entweder Placebo (5% Gummi arabicum) oder die Testsubstanz, nämlich BAP (suspendiert in 5% Gummi arabicum) per os oder intraperitoneal. Danach wurden 12 Stunden lang die Bestimmungen durchgeführt. In der nachfolgenden Tabelle ist der gemittelte Sauerstoffverbrauch nach Medikation während der ersten 3 Stunden und der gesamten Versuchsdauer (12 Stunden) als Prozentsatz des Sauerstoffverbrauchs der Anpassungsperiode (100%) angegeben, wobei entsprechende Korrekturen für Aenderungen in der Placebo-Gruppe berücksichtigt wurden, Tabelle

Structure (SMILES): OCCOc1ccc(CCN(C[C@H](O)c2cccc(Cl)c2)C[C@H](O)c2cccc(Cl)c2)cc1 [BAP, 4-[2-[Bis[(R)-β-hydroxy-3-chlorphenäthyl]amino]äthyl]phenoxyäthanol]
- Sauerstoffverbrauch 1. bis 3. Stunde (0,3 µM/kg i.p.): 134 % vom Wert der Vorperiode
- Sauerstoffverbrauch 1. bis 12. Stunde (0,3 µM/kg i.p.): 108 % vom Wert der Vorperiode
- Sauerstoffverbrauch 1. bis 3. Stunde (0,3 µM/kg p.os): 114 % vom Wert der Vorperiode
- Sauerstoffverbrauch 1. bis 12. Stunde (0,3 µM/kg p.os): 105 % vom Wert der Vorperiode
- Sauerstoffverbrauch 1. bis 3. Stunde (1 µM/kg i.p.): 172 % vom Wert der Vorperiode
- Sauerstoffverbrauch 1. bis 12. Stunde (1 µM/kg i.p.): 121 % vom Wert der Vorperiode
- Sauerstoffverbrauch 1. bis 3. Stunde (1 µM/kg p.os): 156 % vom Wert der Vorperiode
- Sauerstoffverbrauch 1. bis 12. Stunde (1 µM/kg p.os): 122 % vom Wert der Vorperiode
- Sauerstoffverbrauch 1. bis 3. Stunde (3 µM/kg i.p.): 174 % vom Wert der Vorperiode
- Sauerstoffverbrauch 1. bis 12. Stunde (3 µM/kg i.p.): 134 % vom Wert der Vorperiode
- Sauerstoffverbrauch 1. bis 3. Stunde (3 µM/kg p.os): 179 % vom Wert der Vorperiode
- Sauerstoffverbrauch 1. bis 12. Stunde (3 µM/kg p.os): 137 % vom Wert der Vorperiode
- Sauerstoffverbrauch 1. bis 3. Stunde (10 µM/kg i.p.): 186 % vom Wert der Vorperiode
- Sauerstoffverbrauch 1. bis 12. Stunde (10 µM/kg i.p.): 154 % vom Wert der Vorperiode
- Sauerstoffverbrauch 1. bis 3. Stunde (10 µM/kg p.os): 191 % vom Wert der Vorperiode
- Sauerstoffverbrauch 1. bis 12. Stunde (10 µM/kg p.os): 157 % vom Wert der Vorperiode
